Assay results from US8039458B2, “HIV integrase inhibitors” (priority 2005, dated 2011).

Legend:
HIV-Integrase = molecular target: T1, HIV-Integrase (Human immunodeficiency virus type 1 group M subtype B, UniProt P12497); test: HIV-Integrase binding assay (competition with [3H]-compound I, SPA); settings: competitive binding vs [3H]-compound I to purified integrase; Ki by Cheng and Prusoff; read-out: in vitro binding
T1 construct: Recombinant integrase (0.26 ng) was incubated with the beads
Procedure: HIV-Integrase Inhibition Activity. To evaluate in-vitro activity against HIV-integrase, 5 pmole of biotin labeled substrate DNA was bound to 100 μg of Streptavidin coated PVT SPA beads (Amersham Pharmacia Biotech). Recombinant integrase (0.26 ng) was incubated with the beads for 90 min at 37° C. Unbound enzyme was removed by washing the complex followed by addition of inhibitors and 0.1 fmol of P33 labeled target DNA. The reaction was stopped by adding EDTA to a final concentration of 10 mM. Samples were counted in TopCountNXT (Packard) and the CPM was used as a measure of integration. The reaction condition was as described in A. Engelman and R. Craigie, J. Virol. 69, 5908-5911 (1995). The sequences of substrate and target DNA were described in Nucleic Acid Research 22,1121-1122 (1994).
HIV-Integrase binding assay. In this assay competitive binding experiments with test compounds and a radiolabeled integrase inhibitor (compound I) are performed against purified integrase. SPA bead/DNA/enzyme complexes were prepared as for the integrase inhibition assay except, to each well, 0.69 μl of integrase enzyme ([…]) was used per 2 μl of LTR DNA-attached scintillation proximity beads (stock 50 mg/ml). Binding reactions were carried out in 96-well white polystyrene assay plates (Corning, #3600). The following was added sequentially to each well: 20 μl of water or 20 μl of human serum (Cellgro Cat# 35-060-CL), 5 μl of serially diluted compound (in 50% DMSO/50% integrase SPA buffer), 5 μl of [^3H]-compound I (6,000 cpm/μl in SPA buffer) and 20 μl of bead/DNA/enzyme complex. The plates were shaken for 2 hours and then allowed to sit at room temperature without shaking overnight. The [^3H]-compound I binding was measured using a Topcount scintillation counter. Cheng and Prusoff equations were used to convert the inhibition of compound 1 binding into the corresponding Ki value. Activity equal to A refers to a compound having Ki=0.001 to 0.003 μM while B and C denote compounds having Ki=0.003 to 0.05 μM and Ki≧0.050 μM respectively.

[1] = tested on: recombinant NL-Rluc virus; test: Inhibition of HIV replication (NL-RLuc virus, Renilla luciferase); assay type: cell-based; settings: Human immunodeficiency virus 1, read-out: antiviral actitively

Compound | Ki (HIV-Integrase) [nM] | EC50 [1] [nM]
CC1(C)COCCn2c1nc(C(=O)NCc1ccc(F)cc1)c(O)c2=O [Example 1, N-((4-Fluorophenyl)methyl)-3-hydroxy-10,10-dimethyl-4-oxo-6,7,9,10-tetrahydro-4H-pyrimido[1,2-d][1,4]oxazepine-2-carboxamide] | 3 to 50 | 10 to 50
CC1(C)COCCn2c1nc(C(=O)NCc1ccc(F)cc1-n1cncn1)c(O)c2=O [Example 2, N-((4-Fluoro-2-(1H-1,2,4-triazol-1-yl)phenyl)methyl)-3-hydroxy-10,10-dimethyl-4-oxo-6,7,9,10-tetrahydro-4H-pyrimido[1,2-d][1,4]oxazepine-2-carboxamide] | 3 to 50 | 1 to 10
CC1(C)COCCn2c1nc(C(=O)NCc1ccc(F)cc1S(C)(=O)=O)c(O)c2=O [Example 3, N-((4-Fluoro-2-(methylsulfonyl)phenyl)methyl)-3-hydroxy-10,10-dimethyl-4-oxo-6,7,9,10-tetrahydro-4H-pyrimido[1,2-d][1,4]oxazepine-2-carboxamide] | 3 to 50 | 1 to 10
Cc1ncnn1-c1cc(F)ccc1CNC(=O)c1nc2n(c(=O)c1O)CCOCC2(C)C [Example 4, N-((4-Fluoro-2-(5-methyl-1H-1,2,4-triazol-1-yl)phenyl)methyl)-3-hydroxy-10,10-dimethyl-4-oxo-6,7,9,10-tetrahydro-4H-pyrimido[1,2-d][1,4]oxazepine-2-carboxamide] | 3 to 50 | 1 to 10
Cc1nc(C)n(-c2cc(F)ccc2CNC(=O)c2nc3n(c(=O)c2O)CCOCC3(C)C)n1 [Example 5, N-((2-(3,5-dimethyl-1H-1,2,4-triazol-1-yl)-4-fluorophenyl)methyl)-3-hydroxy-10,10-dimethyl-4-oxo-6,7,9,10-tetrahydro-4H-pyrimido[1,2-d][1,4]oxazepine-2-carboxamide] | 3 to 50 | 10 to 50
Cc1ncn(-c2cc(F)ccc2CNC(=O)c2nc3n(c(=O)c2O)CCOCC3(C)C)n1 [Example 6, N-((4-fluoro-2-(3-methyl-1H-1,2,4-triazol-1-yl)phenyl)methyl)-3-hydroxy-10,10-dimethyl-4-oxo-6,7,9,10-tetrahydro-4H-pyrimido[1,2-d][1,4]oxazepine-2-carboxamide] | 3 to 50 | 1 to 10
O=C(NCc1ccc(F)cc1)c1nc2n(c(=O)c1O)CCOCC21CCC1 [Example 7, N-((4-fluorophenyl)methyl)-3′-hydroxy-4′-oxo-6′,7′-dihydro-4′H-spiro[cyclobutane-1,10′-pyrimido[1,2-d][1,4]oxazepine]-2′-carboxamide] | 1 to 3 | 10 to 50
CS(=O)(=O)c1cc(F)ccc1CNC(=O)c1nc2n(c(=O)c1O)CCOCC21CCC1 [Example 8, N-((4-fluoro-2-(methylsulfonyl)phenyl)methyl)-3′-hydroxy-4′-oxo-6′,7′-dihydro-4′H-spiro[cyclobutane-1,10′-pyrimido[1,2-d][1,4]oxazepine]-2′-carboxamide] | 1 to 3 | 1 to 10
O=C(NCc1ccc(F)cc1-n1cncn1)c1nc2n(c(=O)c1O)CCOCC21CCC1 [Example 9, N-((4-fluoro-2-(1H-1,2,4-triazol-1-yl)phenyl)methyl)-3′-hydroxy-4′-oxo-6′,7′-dihydro-4′H-spiro[cyclobutane-1,10′-pyrimido[1,2-d][1,4]oxazepine]-2′-carboxamide] | 1 to 3 | 1 to 10
Cc1ncnn1-c1cc(F)ccc1CNC(=O)c1nc2n(c(=O)c1O)CCOCC21CCC1 [Example 10, N-((4-fluoro-2-(5-methyl-1H-1,2,4-triazol-1-yl)phenyl)methyl)-3′-hydroxy-4′-oxo-6′,7′-dihydro-4′H-spiro[cyclobutane-1,10′-pyrimido[1,2-d][1,4]oxazepine]-2′-carboxamide] | 1 to 3 | 1 to 10
